The values below come from ChEMBL document CHEMBL5030535, “Conjugates Derived from Lapatinib Derivatives with Cancer Cell Stemness Inhibitors Effectively Reversed Drug Resistance in Triple-Negative Breast Cancer” (J Med Chem, 2021).

The structures appear in SMILES notation. The source made the active and inactive calls. The calls are words filed in the database; no cut-off is given here.

The test system of one test is MCF7. As to the kind of experiment: Antiproliferative activity against human MCF7 cells assessed as inhibition of cell growth measured after 72 hrs by MTT assay. In kind it is functional, cell-based. To be noted: MCF7, 72 h. Background: Tetrazolium assays rely on reduction of a dye to a coloured formazan, in cell work by metabolically active cells.
Test [1] relates to MDA-MB-231. As to the kind of experiment: Antiproliferative activity against human drug tolerant MDA-MB-231/lapatinib cells assessed as inhibition of cell growth in measured after 72 hrs by MTT assay. In kind it is functional, cell-based. To be noted: MDA-MB-231, 72 h.
Test [2] concerns MDA-MB-231. As to the kind of experiment: Antiproliferative activity against human MDA-MB-231 cells assessed as inhibition of cell growth measured after 72 hrs by MTT assay. To be noted: MDA-MB-231, 72 h. It counts as functional, cell-based.
A short description of test [3]: Resistant factor, ratio of IC50 for antiproliferative activity against drug-tolerant human MDA-MB-231 cells to IC50 for human MDA-MB-231 cells. It counts as functional.
Another test deals with HUVEC. As to the kind of experiment: Antiproliferative activity against human HUVEC cells assessed as inhibition of cell growth in measured after 72 hrs by MTT assay. It counts as cell-based.
The test system of test [4] is MDA-MB-231. As to the kind of experiment: Inhibition of cell migration in human drug-tolerant MDA-MB-231/lapatinib cells at 20 uM. In kind it is functional.
For test [5], the system named is MDA-MB-231. As to the kind of experiment: Inhibition of Wnt/beta-Catenin signaling in drug-tolerant human MDA-MB-231/lapatinib cells assessed as reduction in p-GSK3beta level at 20 uM incubated for 24 hrs by Western blot analysis. Background: A western blot detects proteins with antibodies after separation by electrophoresis.
Test [6] has as its system MDA-MB-231. As to the kind of experiment: Inhibition of Wnt/beta-Catenin signaling in drug-tolerant human MDA-MB-231/lapatinib cells assessed as reduction in beta-catenin level at 20 uM incubated for 24 hrs by Western blot analysis.
The subject of test [7] is MDA-MB-231. As to the kind of experiment: Antiproliferative activity against drug-tolerant human MDA-MB-231/lapatinib cells assessed as CD44+/CD24- cells measured at 20 uM after 24 hrs by MTT assay. In kind it is functional.
Test [8] has as its system MDA-MB-231. As to the kind of experiment: Antiproliferative activity against drug-tolerant human MDA-MB-231/lapatinib cells assessed as CD44-positive cells measured after 24 hrs by MTT assay. In kind it is functional, cell-based. To be noted: MDA-MB-231, 24 h.
The target of test [9] is T1, Aldehyde dehydrogenase 1A1 (Homo sapiens, UniProt P00352).
T1 sequence (P00352 whole entry): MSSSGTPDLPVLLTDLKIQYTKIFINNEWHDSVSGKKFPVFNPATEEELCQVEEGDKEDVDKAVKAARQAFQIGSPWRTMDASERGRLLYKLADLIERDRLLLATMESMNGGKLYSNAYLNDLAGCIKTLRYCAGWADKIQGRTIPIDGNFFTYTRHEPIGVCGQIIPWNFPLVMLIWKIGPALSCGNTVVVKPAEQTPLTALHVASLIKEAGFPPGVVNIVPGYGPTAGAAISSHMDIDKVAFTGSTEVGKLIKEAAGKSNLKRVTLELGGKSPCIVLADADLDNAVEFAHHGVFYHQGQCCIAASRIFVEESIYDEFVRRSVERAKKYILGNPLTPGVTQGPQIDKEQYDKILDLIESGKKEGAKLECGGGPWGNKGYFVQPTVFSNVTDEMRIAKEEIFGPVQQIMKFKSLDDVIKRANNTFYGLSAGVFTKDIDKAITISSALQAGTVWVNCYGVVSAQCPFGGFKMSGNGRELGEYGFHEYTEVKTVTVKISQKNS
As to the kind of experiment: Inhibition of ALDH1A1 in human drug-tolerant MDA-MB-231/lapatinib cells assessed as after 24 hrs.

For orientation: IC50 means the midpoint of a concentration-inhibition curve. On to `CC(OC(=O)CCC(=O)N(CCS(C)(=O)=O)Cc1ccc(-c2ccc3ncnc(Nc4ccc(OCc5cccc(F)c5)c(Cl)c4)c3c2)o1)c1cc2c(o1)C(=O)c1ccccc1C2=O` (stereo not given), for which the half-maximal inhibitory concentration (IC50) in the test on MCF7 was 3.97 µM; in the test on MDA-MB-231 [1] it was 5.82 µM; with MDA-MB-231 [2] it was 3.61 µM; in the test on HUVEC, 56.6 µM. The “Ratio IC50” value in test [3] is reported as 1.62.

In general, inhibition refers to the drop in the measured response relative to a control, in per cent. Consider `CS(=O)(=O)CCNCc1ccc(-c2ccc3ncnc(Nc4ccc(OCc5cccc(F)c5)c(Cl)c4)c3c2)o1` [LAPATINIB], for which the inhibition at 20 µM in the test with MDA-MB-231 [4] worked out at 52.6%; with MDA-MB-231 [7], 15.7%. Besides, the inhibition result in the test with MDA-MB-231 [5] and in the test with MDA-MB-231 [6] was “Active” throughout. In addition, the IC50 with MCF7 amounted to 12.6 µM; in the test on MDA-MB-231 [1], 29.4 µM; in the test with MDA-MB-231 [2] it was 5.86 µM; in the test with HUVEC, 47.3 µM; in the test on MDA-MB-231 [8] it was 30.8 µM.

For the compound `OCCN1CCN(CCCN2c3ccccc3Sc3ccc(C(F)(F)F)cc32)CC1` [FLUPHENAZINE], the IC50 in the test with MCF7 was found to be 24.6 µM; in the test on MDA-MB-231 [1], 18.6 µM; with MDA-MB-231 [2], 16.7 µM; with HUVEC, 38 µM. Besides, the “Ratio IC50” value in test [3] turned out to be 0.86.

`CC(=O)c1cc2c(o1)C(=O)c1ccccc1C2=O` [NAPABUCASIN]: the IC50 in the test on MCF7 was determined as 11.4 µM; in the test on MDA-MB-231 [1], 9.68 µM; in the test on MDA-MB-231 [2] it was 11 µM; in test [9] it was 0.425 µM; with HUVEC, 41.3 µM. In addition, the “Ratio IC50” value in [3] was 0.88.
